Measurements taken from patent US12077503B2, “Substituted cyclic amides and their use as herbicides” (FMC CORPORATION, priority 2015, dated 2024).

Assays:
Assay type in all cases: in vivo
[1] = tested on: giant foxtail (Setaria faberi); experiment: Test G Post-Emergence Protocol; conditions: Setaria faberi, post-emergence, 312 h; for pest or weed control at 15.625 g/ha: 15.625 g ai/ha, evaluated after 13 days (100=total damage to plant; 0=no damage to plant), read-out: Foxtail, Giant damage rating; for pest or weed control at 62.5 g/ha: 62.5 g ai/ha, read-out: Foxtail, Giant damage rating (100=total damage to plant; 0=no damage to plant); for pest or weed control at 62.5 g/ha / pest or weed control at 250 g/ha: evaluated after 13 days; for pest or weed control at 250 g/ha: 250 g ai/ha, read-out: damage to plant, Foxtail, Giant (100=total damage to plant; 0=no damage to plant)
Outline: (§1)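 Seedlings grown 8 days in soil in a glasshouse (24/16 °C day/night, 14 h light, 65% humidity) were sprayed post-emergence with compound in acetone/water 50:50 plus 0.5% Tween 20 at 15.625, 62.5 or 250 g/ha. Damage was scored after 13 days on a 0–100 scale (100 = total damage).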

[2] = tested on: velvetleaf (Abutilon theophrasti); experiment: Test G Post-Emergence Protocol; conditions: Abutilon theophrasti, post-emergence, 312 h; for pest or weed control at 15.625 g/ha: 15.625 g ai/ha, evaluated after 13 days (100=total damage to plant; 0=no damage to plant), read-out: Velvetleaf damage rating; for pest or weed control at 62.5 g/ha: 62.5 g ai/ha, read-out: Velvetleaf damage rating (100=total damage to plant; 0=no damage to plant); for pest or weed control at 62.5 g/ha / pest or weed control at 250 g/ha: evaluated after 13 days; for pest or weed control at 250 g/ha: 250 g ai/ha, read-out: damage to plant, Velvetleaf (100=total damage to plant; 0=no damage to plant)
Outline: as §1

corn (Zea mays) [3] = experiment: Test G Post-Emergence Protocol; conditions: Zea mays, post-emergence, 312 h; for plant injury at 15.625 g/ha: 15.625 g ai/ha, evaluated after 13 days (100=total damage to plant; 0=no damage to plant), read-out: Corn damage rating; for plant injury at 62.5 g/ha: 62.5 g ai/ha, read-out: Corn damage rating (100=total damage to plant; 0=no damage to plant); for plant injury at 62.5 g/ha / plant injury at 250 g/ha: evaluated after 13 days; for plant injury at 250 g/ha: 250 g ai/ha, read-out: damage to plant, Corn (100=total damage to plant; 0=no damage to plant)
Outline: as §1

[4] = tested on: redroot pigweed (Amaranthus retroflexus); experiment: Test G Post-Emergence Protocol; conditions: Amaranthus retroflexus, post-emergence, 312 h; for pest or weed control at 15.625 g/ha: 15.625 g ai/ha, evaluated after 13 days (100=total damage to plant; 0=no damage to plant), read-out: Pigweed, Redroot damage rating; for pest or weed control at 62.5 g/ha: 62.5 g ai/ha, read-out: Pigweed, Redroot damage rating (100=total damage to plant; 0=no damage to plant); for pest or weed control at 62.5 g/ha / pest or weed control at 250 g/ha: evaluated after 13 days; for pest or weed control at 250 g/ha: 250 g ai/ha, read-out: damage to plant, Pigweed, Redroot (100=total damage to plant; 0=no damage to plant)
Outline: as §1

[5] = tested on: ivy-leaved morning glory (Ipomoea hederacea); experiment: Test G Post-Emergence Protocol; conditions: Ipomoea, post-emergence, 312 h; for pest or weed control at 15.625 g/ha: 15.625 g ai/ha, evaluated after 13 days (100=total damage to plant; 0=no damage to plant), read-out: Morningglory, Ivy-leaved damage rating; for pest or weed control at 62.5 g/ha: 62.5 g ai/ha, read-out: Morningglory, Ivy-leaved damage rating (100=total damage to plant; 0=no damage to plant); for pest or weed control at 62.5 g/ha / pest or weed control at 250 g/ha: evaluated after 13 days; for pest or weed control at 250 g/ha: 250 g ai/ha, read-out: damage to plant, Morningglory, Ivy-leaved (100=total damage to plant; 0=no damage to plant)
Outline: as §1

[6] = tested on: barnyardgrass (Echinochloa crus-galli); experiment: Test G Post-Emergence Protocol; conditions: Echinochloa crus-galli, post-emergence, 312 h; for pest or weed control at 15.625 g/ha: 15.625 g ai/ha, evaluated after 13 days (100=total damage to plant; 0=no damage to plant), read-out: Barnyardgrass damage rating; for pest or weed control at 62.5 g/ha: 62.5 g ai/ha, read-out: Barnyardgrass damage rating (100=total damage to plant; 0=no damage to plant); for pest or weed control at 62.5 g/ha / pest or weed control at 250 g/ha: evaluated after 13 days; for pest or weed control at 250 g/ha: 250 g ai/ha, read-out: damage to plant, Barnyardgrass (100=total damage to plant; 0=no damage to plant)
Outline: as §1

[7] = tested on: giant foxtail (Setaria faberi); experiment: Test G Pre-Emergence Protocol; conditions: Setaria faberi, pre-emergence, 312 h, evaluated after 13 days; for pest or weed control at 15.625 g/ha: 15.625 g ai/ha; for pest or weed control at 15.625 g/ha / pest or weed control at 250 g/ha: read-out: Foxtail, Giant damage rating (100=total damage to plant; 0=no damage to plant); for pest or weed control at 62.5 g/ha: 62.5 g ai/ha, 100=total damage to plant, 0=no damage to plant, read-out: plant damage rating, Foxtail, Giant; for pest or weed control at 250 g/ha: 250 g ai/ha
Outline: (§2)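 Under a 24/16° C day/night regime with 14 h light and 65% humidity, sown pots were sprayed after one day with compound (15.625, 62.5 or 250 g/ha; 50:50 acetone/water, 0.5% Tween 20). Damage was assessed visually 13 days later, 0 to 100.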

[8] = tested on: velvetleaf (Abutilon theophrasti); experiment: Test G Pre-Emergence Protocol; conditions: Abutilon theophrasti, pre-emergence, 312 h, evaluated after 13 days; for pest or weed control at 15.625 g/ha: 15.625 g ai/ha; for pest or weed control at 15.625 g/ha / pest or weed control at 250 g/ha: read-out: Velvetleaf damage rating (100=total damage to plant; 0=no damage to plant); for pest or weed control at 62.5 g/ha: 62.5 g ai/ha, 100=total damage to plant, 0=no damage to plant, read-out: plant damage rating, Velvetleaf; for pest or weed control at 250 g/ha: 250 g ai/ha
Outline: as §2

corn (Zea mays) [9] = experiment: Test G Pre-Emergence Protocol; conditions: Zea mays, pre-emergence, 312 h, evaluated after 13 days; for plant injury at 15.625 g/ha: 15.625 g ai/ha; for plant injury at 15.625 g/ha / plant injury at 250 g/ha: read-out: Corn damage rating (100=total damage to plant; 0=no damage to plant); for plant injury at 62.5 g/ha: 62.5 g ai/ha, 100=total damage to plant, 0=no damage to plant, read-out: plant damage rating, Corn; for plant injury at 250 g/ha: 250 g ai/ha
Outline: as §2

[10] = tested on: redroot pigweed (Amaranthus retroflexus); experiment: Test G Pre-Emergence Protocol; conditions: Amaranthus retroflexus, pre-emergence, 312 h, evaluated after 13 days; for pest or weed control at 15.625 g/ha: 15.625 g ai/ha; for pest or weed control at 15.625 g/ha / pest or weed control at 250 g/ha: read-out: Pigweed, Redroot damage rating (100=total damage to plant; 0=no damage to plant); for pest or weed control at 62.5 g/ha: 62.5 g ai/ha, 100=total damage to plant, 0=no damage to plant, read-out: plant damage rating, Pigweed, Redroot; for pest or weed control at 250 g/ha: 250 g ai/ha
Outline: as §2

[11] = tested on: ivy-leaved morning glory (Ipomoea hederacea); experiment: Test G Pre-Emergence Protocol; conditions: Ipomoea, pre-emergence, 312 h, evaluated after 13 days; for pest or weed control at 15.625 g/ha: 15.625 g ai/ha, read-out: Morning-glory, Ivy-leaved damage rating (100=total damage to plant; 0=no damage to plant); for pest or weed control at 62.5 g/ha: 62.5 g ai/ha, 100=total damage to plant, 0=no damage to plant, read-out: plant damage rating, Morningglory, Ivy-leaved; for pest or weed control at 250 g/ha: 250 g ai/ha, read-out: Morningglory, Ivy-leaved damage rating (100=total damage to plant; 0=no damage to plant)
Outline: as §2

[12] = tested on: barnyardgrass (Echinochloa crus-galli); experiment: Test G Pre-Emergence Protocol; conditions: Echinochloa crus-galli, pre-emergence, 312 h, evaluated after 13 days; for pest or weed control at 15.625 g/ha: 15.625 g ai/ha, read-out: Barnyard grass damage rating (100=total damage to plant; 0=no damage to plant); for pest or weed control at 62.5 g/ha: 62.5 g ai/ha, 100=total damage to plant, 0=no damage to plant, read-out: plant damage rating, Barnyardgrass; for pest or weed control at 250 g/ha: 250 g ai/ha, read-out: Barnyardgrass damage rating (100=total damage to plant; 0=no damage to plant)
Outline: as §2

| SMILES | pest or weed control at 15.625 g/ha [1] | pest or weed control at 62.5 g/ha [1] | pest or weed control at 250 g/ha [1] | pest or weed control at 15.625 g/ha [2] | pest or weed control at 62.5 g/ha [2] | pest or weed control at 250 g/ha [2] | plant injury at 15.625 g/ha (corn (Zea mays) [3]) | plant injury at 62.5 g/ha (corn (Zea mays) [3]) | plant injury at 250 g/ha (corn (Zea mays) [3]) | pest or weed control at 15.625 g/ha [4] | pest or weed control at 62.5 g/ha [4] | pest or weed control at 250 g/ha [4] | pest or weed control at 15.625 g/ha [5] | pest or weed control at 62.5 g/ha [5] | pest or weed control at 250 g/ha [5] | pest or weed control at 15.625 g/ha [6] | pest or weed control at 62.5 g/ha [6] | pest or weed control at 250 g/ha [6] | pest or weed control at 15.625 g/ha [7] | pest or weed control at 62.5 g/ha [7] | further results |
| --- | --- | --- | --- | --- | --- | --- | --- | --- | --- | --- | --- | --- | --- | --- | --- | --- | --- | --- | --- | --- | --- |
| Cc1cccc(NC(=O)[C@@H]2C(=O)N(C)C[C@H]2c2ccc(C(F)(F)F)cc2)c1[N+](=O)[O-] (racemic) [Compound 1636] | 50% | 70% | 70% | 0% | 0% | 0% | 0% | 0% | 0% | 0% | 0% | 0% | 0% | 0% | 0% | 10% | 50% | 50% | 0% | 40% | pest or weed control at 250 g/ha [7]: 60%; pest or weed control at 15.625 g/ha [8]: 0%; pest or weed control at 62.5 g/ha [8]: 0%; pest or weed control at 250 g/ha [8]: 0%; plant injury at 15.625 g/ha (corn (Zea mays) [9]): 0%; plant injury at 62.5 g/ha (corn (Zea mays) [9]): 0%; plant injury at 250 g/ha (corn (Zea mays) [9]): 0%; pest or weed control at 15.625 g/ha [10]: 0%; pest or weed control at 62.5 g/ha [10]: 0%; pest or weed control at 250 g/ha [10]: 0%; pest or weed control at 15.625 g/ha [11]: 0%; pest or weed control at 62.5 g/ha [11]: 0%; pest or weed control at 250 g/ha [11]: 0%; pest or weed control at 15.625 g/ha [12]: 0%; pest or weed control at 62.5 g/ha [12]: 10%; pest or weed control at 250 g/ha [12]: 30% |
| CN1C[C@@H](c2ccc(C(F)(F)F)cc2)[C@H](C(=O)Nc2ccnc(C(F)(F)F)c2)C1=O (racemic) [Compound 1638] | 0% | 0% | 0% | 0% | 0% | 0% | 0% | 0% | 0% | 0% | 0% | 0% | 0% | 0% | 0% | 0% | 0% | 0% | 0% | 0% | pest or weed control at 250 g/ha [7]: 0%; pest or weed control at 15.625 g/ha [8]: 0%; pest or weed control at 62.5 g/ha [8]: 0%; pest or weed control at 250 g/ha [8]: 0%; plant injury at 15.625 g/ha (corn (Zea mays) [9]): 0%; plant injury at 62.5 g/ha (corn (Zea mays) [9]): 0%; plant injury at 250 g/ha (corn (Zea mays) [9]): 0%; pest or weed control at 15.625 g/ha [10]: 0%; pest or weed control at 62.5 g/ha [10]: 0%; pest or weed control at 250 g/ha [10]: 0%; pest or weed control at 15.625 g/ha [11]: 0%; pest or weed control at 62.5 g/ha [11]: 0%; pest or weed control at 250 g/ha [11]: 0%; pest or weed control at 15.625 g/ha [12]: 0%; pest or weed control at 62.5 g/ha [12]: 0%; pest or weed control at 250 g/ha [12]: 0% |
| COc1nccc(NC(=O)[C@@H]2C(=O)N(C)C[C@H]2c2ccc(C(F)(F)F)cc2)n1 (racemic) [Compound 1640] | 0% | 0% | 0% | 0% | 0% | 0% | 0% | 0% | 0% | 0% | 0% | 0% | 0% | 0% | 0% | 0% | 0% | 0% | 0% | 0% | pest or weed control at 250 g/ha [7]: 0%; pest or weed control at 15.625 g/ha [8]: 0%; pest or weed control at 62.5 g/ha [8]: 0%; pest or weed control at 250 g/ha [8]: 0%; plant injury at 15.625 g/ha (corn (Zea mays) [9]): 0%; plant injury at 62.5 g/ha (corn (Zea mays) [9]): 0%; plant injury at 250 g/ha (corn (Zea mays) [9]): 0%; pest or weed control at 15.625 g/ha [10]: 0%; pest or weed control at 62.5 g/ha [10]: 0%; pest or weed control at 250 g/ha [10]: 0%; pest or weed control at 15.625 g/ha [11]: 0%; pest or weed control at 62.5 g/ha [11]: 0%; pest or weed control at 250 g/ha [11]: 0%; pest or weed control at 15.625 g/ha [12]: 0%; pest or weed control at 62.5 g/ha [12]: 0%; pest or weed control at 250 g/ha [12]: 0% |
